“Also recorded” adds a separate entry of the source. Read-outs that look alike come from different tables or passages of the source.
How the values were obtained:
damaged cardiac tissue = assay: Ratio of activity in damaged vs normal cardiac tissue of rats (Table II); format: in vivo, rat; details: isoproterenol-damaged rats vs control rats; 60 minutes after injection
Method: The heart was excised, cut open, and blotted. […] Other organs were also dissected and weighed.
Control animals (animals not injected with isoproterenol) were also injected with several ^99m Tc complexes.

[1] = rat, in vivo, iv, 1 h
Method: (§1) The dosage used was proportional to the weight of the rats (30 mg isoproterenol hydrochloride/kilogram of body weight).
(§2) After five hours, the animals were injected with 50 μl (~1 mCi) of the above radioactive solution via the tail vein. The animals were killed by cervical dislocation 60 minutes after the injection of the technetium complex. The heart was excised, cut open, and blotted. Heart tissue was then washed with isotonic saline solution and weighed. Other organs were also dissected and weighed. The amount of radiation in each tissue was quantitatively determined using a NaI scintillation counter. Fifty μl standards of the complex solution were also counted. […] The levels are expressed as a percent of the original dose of radioactivity which was taken up by the tissue or fluid (blood).

infarcts = details: cited from earlier work
[2] = in vivo; cited from earlier work
[3] = Tissue distribution of Tc-99m agents in rats with isoproterenol-induced heart damage (Table I); details: 60 minutes after i.v. (tail vein) injection
Method: as §1, §2

## O=P([O-])([O-])OP(=O)([O-])[O-].[99Tc] [Pyrophosphate, ^99m Tc-pyrophosphate]
Damaged cardiac tissue
  % Dose/gram in Damaged Heart/% Dose/gram in Normal Heart: 21.4
[1]
  % Dose/g of Tissue (Fluid), Blood: 0.182 % Dose/g
  % Dose/g of Tissue (Fluid), Liver: 0.131 % Dose/g
  % Dose/g of Tissue (Fluid), Muscle: 0.026 % Dose/g
infarcts; compared to other ^99m Tc bone seeking agents
  infarct to bone ratio: relatively high
infarcts; in vivo
  detection of recent infarcts: inability to detect recent infarcts
infarcts; ribs and sternum / overlying skeletal structures
  interference from skeletal structures in infarct imaging: less interference from the ribs and sternum; also recorded: interference due to uptake in overlying skeletal structures
[2]
  blood clearance: relatively slow

## ^99m Tc-glucoheptonate
infarcts; in vivo
  accumulation in infarcts: shown to accumulate in infarcts

## ^99m Tc-hydroxyethylenediphosphonate
infarcts; in vivo
  accumulation in infarcts: shown to accumulate in infarcts

## O.O.O=P([O-])([O-])CP(=O)([O-])[O-].[99Tc+4] [Methylenediphosphonate, ^99m Tc-methylenediphosphonate]
Damaged cardiac tissue
  % Dose/gram in Damaged Heart/% Dose/gram in Normal Heart: 20.5
infarcts; in vivo
  accumulation in infarcts: shown to accumulate in infarcts
[3]; blood
  % Dose/g of Tissue (Fluid), Blood: 0.051 % Dose/g
[3]; liver
  % Dose/g of Tissue (Fluid), Liver: 0.060 % Dose/g
[3]; muscle
  % Dose/g of Tissue (Fluid), Muscle: 0.018 % Dose/g
